Data on 12 molecules can be found in article PMC8006142 (Journal of Medicinal Chemistry, 2021).

Some results are limits rather than exact numbers.

The target of one data set is T1, AM1 receptor (Homo sapiens, UniProt O60895+Q16602).
T1 construct: expressed in transfected cells; host or cells: GPCR/RAMP-overexpressing cells; the AM1 line itself is not described
Description: TR-FRET cAMP accumulation, AM1 receptor cross-screen. Format: cell-based. The following applies: Table 2; read-out: pIC50 AM1 (converted). As for the experimental part: (§1) The ability of the compounds to inhibit cAMP production induced by an EC50 concentration of the maximum agonist activation (information previously published[34]) in GPCR/RAMP-overexpressing cells (i.e., AM2, CGRP cells) was evaluated using cAMP accumulation assays. Each compound was tested at 8 full-log concentrations (10^–11–10^–5 M) including a negative control (blank). The total cAMP was measured using the TR-FRET LANCE cAMP detection kit (PerkinElmer, AD0264), as described previously.[34] Briefly, frozen cells ([…]) were thawed and prepared in warm stimulation buffer (1× HBSS, 5 mM N-(2-hydroxyethyl)piperazine-N′-ethanesulfonic acid (HEPES), 0.5 mM IBMX, and 0.1% bovine serum albumin (BSA)). Alexa Fluor conjugated anti-cAMP (1:100 concentration) was then added to the cell suspension, and cells were plated (2500 cells, 6 μL) in a 384-well white opaque microtiter plate (OptiPlates, PerkinElmer, 6007299). […] Subsequently, a 12 μL detection mix (Europium-Chelate streptavidin/biotinylated cAMP) was added to stop the reaction and induce cell lysis. TR-FRET was detected after an hour of incubation by an EnSight multimode Plate reader (PerkinElmer) at 320/340 nm excitation and 615/665 nm emission. Data were normalized to agonist only and blank (stimulation buffer only) wells as 0 and 100% cAMP inhibition, respectively.
The final DMSO concentration was below 0.5%, and this was kept consistent in all of the wells, including agonist alone and blank. The same methodology including the number of cells was used for all cell lines. […] No further constraints in any parameters of the curves were used.

The target in a further data set is AM2 receptor (Homo sapiens, UniProt O60896+Q16602). Description: TR-FRET cAMP accumulation, inhibition of agonist-induced cAMP in AM2 receptor-overexpressing cells. Format: cell-based. The following applies: supplementary CSV; read-out: pIC50 AM2R (converted). The protocol: as §1, with “respectively. […]” for “respectively.”
AM2 receptor, sequence (Q16602 23-461): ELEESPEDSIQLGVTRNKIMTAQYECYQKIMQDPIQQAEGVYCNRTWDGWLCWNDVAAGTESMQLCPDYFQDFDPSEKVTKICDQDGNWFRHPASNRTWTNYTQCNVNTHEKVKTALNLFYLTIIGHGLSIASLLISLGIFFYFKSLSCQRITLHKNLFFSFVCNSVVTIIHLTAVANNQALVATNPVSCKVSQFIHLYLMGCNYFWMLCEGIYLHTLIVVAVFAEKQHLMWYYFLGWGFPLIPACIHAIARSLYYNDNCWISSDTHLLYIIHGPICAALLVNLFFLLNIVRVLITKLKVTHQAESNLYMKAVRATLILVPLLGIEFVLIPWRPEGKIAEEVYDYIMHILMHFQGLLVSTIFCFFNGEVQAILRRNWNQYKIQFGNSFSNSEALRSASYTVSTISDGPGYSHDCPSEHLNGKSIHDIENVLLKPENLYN
AM2 receptor, sequence (O60896 24-148): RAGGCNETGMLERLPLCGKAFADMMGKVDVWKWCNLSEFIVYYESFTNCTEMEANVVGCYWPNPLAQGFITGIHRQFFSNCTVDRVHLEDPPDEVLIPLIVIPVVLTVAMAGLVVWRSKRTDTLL
For a further data set, the target named is CGRP receptor (Homo sapiens, UniProt O60894+Q16602). Description: TR-FRET cAMP accumulation, inhibition of agonist-induced cAMP in CGRP receptor-overexpressing cells. It counts as cell-based. The following applies: supplementary CSV; read-out: pIC50 CGRPR (converted). As for the experimental part:
as §1, with “respectively. […]” for “respectively.”

A further data set relates to MDA-MB-231 tumor. The data set is described as follows: Subcutaneous MDA-MB-231 xenograft in BALB/c nude mice. It counts as in vivo. The protocol:
The study was performed using 6–7 week old BALB/c nude female mice, with a weight range of 15–20 g. Animals were provided by Envigo Corporation (Cambridgeshire, U.K.) or Charles River Laboratories (Massachusetts) depending on availability. Each experiment started with 10 mice (experimental units) in each experimental/control group. Subsequent analysis (tumor growth and histology) was only performed in animals where tumors had established and were palpable within 3 days of implantation. This was in accordance with the power calculation performed to ensure robust statistical analysis by the University of Sheffield Statistical Service. The animals were housed in individually ventilated cages (with the appropriate bedding and flooring conditions) in environmentally controlled conditions with a 12 h light/dark cycles at ∼26 °C. Mice had access to an adequate amount of water and a 2018 Teklad Global 18% Protein Rodent Diet containing 1.01% calcium (Harlan Laboratories, U.K.). The day-to-day care of the animals was carried out by the technicians in the Biological Services (The University of Sheffield, U.K.). All scientific procedures on animals were carried under the U.K. Home Office Project Licenses (40/3499) and Procedure Individual Licenses.
Compounds were dissolved in DMSO (Sigma-Aldrich, D4540) and sonicated at 37 °C for 10 min. The appropriate volume of solvent (Kolliphor HS15 (1 part, grams), Kollisolv PEG E 400 (3 parts, mL), and PBS (6 parts, mL)) was then added to yield a 6% DMSO/94% solvent solution. These working stocks (8 mg/mL) were further sonicated at 37 °C for 10 min before storing at −20 °C. To make treatment aliquots, equal amounts of the working stock (or vehicle control) and solvent were mixed and sonicated at 37 °C for 10 min (4 mg/mL, equivalent to 20 mg/kg, 3% DMSO/97% solvent). Vehicle control and compounds were sonicated at 37 °C for 10 min prior to ip injections (200 μL per mouse).
Cells were prepared according to standard cell culture techniques. Cell pellets were resuspended in 50% PBS/50% Matrigel (Corning, 354234). Matrigel/PBS cell suspension, needles (25G), and syringes (1 mL) were kept on ice before and during tumor inoculation into mice. Cell suspension (100 μL, 5 × 10^6 cells) was injected subcutaneously into the left flank of 6–7 weeks old female immunodeficient nude athymic mice (BALB/c nude). Once the tumors became palpable (around 100 mm^3), mice were randomized into treatment groups. Mice were treated daily at the same time of the day with an ip injection of 20 mg/kg of compound or vehicle control (200 μL per mouse) until humane end point. […] Tumor size and mouse weights were measured twice a week. At the end of each study, the animals were euthanized following the appropriate procedures listed in the ASPA Act 1986. Vital organs and tumors were stored in 10% neutral-buffered formalin for further histological analysis. The primary experimental outcome was tumor volume. The percentage tumor volume was calculated by normalizing measured tumor volumes to the initial tumor volume prior to the start of treatment on day 5. Simple linear regression was done to compare the line of best fit between the growth curves. Blinding was not used for the in vivo studies.

For another data set, the system named is MDA-MB-231 cells. Description: Real-Time-Glo MT viability assay. Conditions: 10 μM, daily treatment, after 3 days, versus vehicle-treated controls. It counts as cell-based, human. As for the experimental part: Cell viability in human breast cancer cells (MDA-MB-231) was quantified using Real-Time-Glo MT Cell Viability Assay (Promega, G9712) as previously described.[34] Cells (2000 cells) were seeded into 96-well white clear-bottom plates (Corning, 3903) in full serum media overnight before washing and changing to suboptimal media (RPMI + 5% FBS + 1% P/S) containing Real-Time-Glo reagents according to the Promega protocol. A baseline luminescence read (prior to treatment) was taken using an EnSight Multimode Plate Reader (PerkinElmer) after an hour of incubation at 37 °C. Cells were then treated with compounds or vehicle control (PBS + 0.05% DMSO) daily. Results were normalized to vehicle-treated controls as 100% viable (Graphpad Prism 7 and 8).

Another data set has as its system CGRP. On the set-up: method as in PMID 24900170, PMID 16161996. Conditions: cited from earlier work.

T1 sequence (Q16602 23-461): as the sequence (Q16602 23-461) above
T1 sequence (O60895 43-175): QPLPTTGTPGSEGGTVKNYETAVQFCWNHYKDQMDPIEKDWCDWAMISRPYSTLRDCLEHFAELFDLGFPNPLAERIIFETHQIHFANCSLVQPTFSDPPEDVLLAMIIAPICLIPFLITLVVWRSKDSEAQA
CGRP receptor, sequence (Q16602 23-461): as the sequence (Q16602 23-461) above
CGRP receptor, sequence (O60894 27-148): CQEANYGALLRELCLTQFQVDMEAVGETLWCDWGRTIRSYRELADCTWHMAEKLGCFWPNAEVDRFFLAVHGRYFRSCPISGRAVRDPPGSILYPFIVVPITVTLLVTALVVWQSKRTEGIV

Take `CC(C)(C)C(=O)N(CC(=O)Nc1ccc2c(c1)CC1(C2)C(=O)Nc2ncccc21)Cc1ccccc1CO` (stereo not shown) [Compound 13, N-(2-(Hydroxymethyl)benzyl)-N-(2-oxo-2-((2′-oxo-1,1′,2′,3-tetrahydrospiro[indene-2,3′-pyrrolo[2,3-b]pyridin]-5-yl)amino)ethyl)pivalamide]: the IC50 at AM1 receptor was 1.26 µM.
Turning to `CC(C)(C)C(=O)N(CC(=O)Nc1ccc2c(c1)CC1(C2)C(=O)Nc2ncccc21)Cc1ccccc1CNC1CC1` (stereo not shown) [Compound 26, N-(2-((Cyclopropylamino)methyl)benzyl)-N-(2-oxo-2-((2′-oxo-1,1′,2′,3-tetrahydrospiro[indene-2,3′-pyrrolo[2,3-b]pyridin]-5-yl)amino)ethyl)pivalamide], on AM1 receptor, the IC50 is 3.16 µM.
The same measure, in the same setting: with `CC(C)(C)C(=O)N(CC(=O)Nc1ccc2c(c1)CC1(C2)C(=O)Nc2ncccc21)Cc1ccccc1C(N)=O` (stereo not shown) [Compound 15, 2-((N-(2-Oxo-2-((2′-oxo-1,1′,2′,3-tetrahydrospiro[indene-2,3′-pyrrolo[2,3-b]pyridin]-5-yl)amino)ethyl)pivalamido)methyl)benzamide] the figure was 6.31 µM; with `CC(C)(C)C(=O)N(CC(=O)Nc1ccc2c(c1)CC1(C2)C(=O)Nc2ncccc21)Cc1nccs1` (stereo not shown) [Compound 8, N-(2-Oxo-2-((2′-oxo-1,1′,2′,3-tetrahydrospiro[indene-2,3′-pyrrolo[2,3-b]pyridin]-5-yl)amino)ethyl)-N-(thiazol-2-ylmethyl)pivalamide], 25.1 µM.
For the molecule `CC(C)(C)C(=O)N(CC(=O)Nc1ccc2c(c1)CC1(C2)C(=O)Nc2ncccc21)Cc1ccccc1CNCc1ncc[nH]1` (stereo not shown) [Compound 23, N-(2-((((1H-Imidazol-2-yl)methyl)amino)methyl)benzyl)-N-(2-oxo-2-((2′-oxo-1,1′,2′,3-tetrahydrospiro[indene-2,3′-pyrrolo[2,3-b]pyridine]-5-yl)amino)ethyl)pivalamide], the IC50 is 0.251 µM on AM2 receptor and 0.00398 µM on CGRP receptor.
Take `CC(N)c1ccccc1CN(CC(=O)Nc1ccc2c(c1)CC1(C2)C(=O)Nc2ncccc21)C(=O)C(C)(C)C` (racemic) [(±)-29, N-(2-(1-Aminoethyl)benzyl)-N-(2-oxo-2-((2′-oxo-1,1′,2′,3-tetrahydrospiro[indene-2,3′-pyrrolo[2,3-b]pyridin]-5-yl)amino)ethyl)pivalamide]: the IC50 on AM1 receptor is above 10 µM.
With `CNCc1ccccc1CN(CC(=O)Nc1ccc2c(c1)CC1(C2)C(=O)Nc2ncccc21)C(=O)C(C)(C)C` (stereo not shown) [Compound 25], the tumor growth rates entry in the data set on MDA-MB-231 tumor (20 mg/kg ip daily, simple linear regression, p < 0.001) is “significantly reduced”. In addition, in the data set with MDA-MB-231 tumor (20 mg/kg ip once daily), the adverse effects result is recorded as “No adverse effects were observed”, the “body weight compared with vehicle-treated mice” value was “did not differ significantly” and the tolerability result is on record as “well tolerated”. For the same molecule, the “decrease of breast cancer xenograft tumor growth” value with MDA-MB-231 tumor (20 mg/kg ip once daily, 4 weeks after treatment, versus vehicle) stood at 47%. Also, in the data set on MDA-MB-231 cells, the “decrease of MDA-MB-231 viability” value is reported as 55%. On AM1 receptor, the IC50 is 2 µM.
For `CC(C)(C)C(=O)N(CC(=O)Nc1ccc2c(c1)CC1(C2)C(=O)Nc2ncccc21)Cc1ccccc1CN` (stereo not shown) [Compound 12, N-(2-(Aminomethyl)benzyl)-N-(2-oxo-2-((2′-oxo-1,1′,2′,3-tetrahydrospiro[indene-2,3′-pyrrolo[2,3-b]pyridin]-5-yl)amino)ethyl)pivalamide], the IC50 on AM1 receptor was 7.94 µM.
Take `CN1CCCC(CN(CC(=O)Nc2ccc3c(c2)CC2(C3)C(=O)Nc3ncccc32)C(=O)C(C)(C)C)C1` (racemic) [(±)-6, N-((1-Methylpiperidin-3-yl)methyl)-N-(2-oxo-2-((2′-oxo-1,1′,2′,3-tetrahydrospiro[indene-2,3′-pyrrolo[2,3-b]pyridin]-5-yl)amino)ethyl)pivalamide]: the IC50 at AM1 receptor was above 10 µM.
On to `O=C(CN1C(=O)C2(CCCC2)NC[C@H]1c1cc(F)cc(F)c1)Nc1ccc2c(c1)C[C@@]1(C2)C(=O)Nc2ncccc21` [MK-3207], for which the CGRP potency in the data set with CGRP was 0.00012 µM.
`CC(C)(C)C(=O)N(CC(=O)Nc1ccc2c(c1)CC1(C2)C(=O)Nc2ncccc21)Cc1ccccc1CN1CCC1` (stereo not shown) [Compound 27, N-(2-(Azetidin-1-ylmethyl)benzyl)-N-(2-oxo-2-((2′-oxo-1,1′,2′,3-tetrahydrospiro[indene-2,3′-pyrrolo[2,3-b]pyridine]-5-yl)amino)ethyl)pivalamide]: the IC50 at AM1 receptor was 2 µM.
On the same count and under the same terms, with `CC(C)(C)C(=O)N(CC(=O)Nc1ccc2c(c1)CC1(C2)C(=O)Nc2ncccc21)Cc1ccccn1` (stereo not shown) [Compound 5, N-(2-Oxo-2-((2′-oxo-1,1′,2′,3-tetrahydrospiro[indene-2,3′-pyrrolo[2,3-b]pyridin]-5-yl)amino)ethyl)-N-(pyridin-2-ylmethyl)pivalamide] the figure was 50.1 µM.
